Measured values: patent US8772499B2, “TRPV3 modulators” (AbbVie Inc., priority 2011, dated 2014)
Read-outs that look alike come from different tables or passages of the source.

Columns and labels:
human TRPV3 = biological target: T1, human TRPV3 (Homo sapiens, UniProt Q8NET8); assay: In vitro antagonism of recombinant human TRPV3 activation (FLIPR Tetra calcium assay); type: cell-based; details: HEK293 cells stably expressing human TRPV3, agonist 2-APB at 80 μM
T1 construct: expressed in transfected cells
T1 sequence (Q8NET8 1-790): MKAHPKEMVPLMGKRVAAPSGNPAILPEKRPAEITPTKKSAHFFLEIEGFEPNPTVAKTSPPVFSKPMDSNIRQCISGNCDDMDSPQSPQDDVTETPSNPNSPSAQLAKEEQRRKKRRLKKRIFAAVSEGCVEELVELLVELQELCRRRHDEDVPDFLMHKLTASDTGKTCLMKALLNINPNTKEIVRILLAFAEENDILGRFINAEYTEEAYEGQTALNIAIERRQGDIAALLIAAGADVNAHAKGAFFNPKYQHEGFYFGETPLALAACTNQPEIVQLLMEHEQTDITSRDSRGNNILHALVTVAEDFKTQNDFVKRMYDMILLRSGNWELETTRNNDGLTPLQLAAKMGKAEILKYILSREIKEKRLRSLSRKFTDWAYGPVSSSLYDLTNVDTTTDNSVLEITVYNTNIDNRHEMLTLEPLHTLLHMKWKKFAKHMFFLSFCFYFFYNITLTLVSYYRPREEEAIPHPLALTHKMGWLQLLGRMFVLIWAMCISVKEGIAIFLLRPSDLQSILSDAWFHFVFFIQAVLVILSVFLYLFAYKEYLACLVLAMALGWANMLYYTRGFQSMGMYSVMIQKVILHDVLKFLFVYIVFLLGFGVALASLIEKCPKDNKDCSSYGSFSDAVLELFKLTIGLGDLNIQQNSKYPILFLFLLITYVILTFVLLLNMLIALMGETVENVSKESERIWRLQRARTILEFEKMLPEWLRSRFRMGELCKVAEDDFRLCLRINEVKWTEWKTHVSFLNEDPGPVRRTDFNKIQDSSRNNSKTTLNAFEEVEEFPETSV
Outline: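 Calcium flux read over a 10 min run: compound added at 10 s to Calcium-4-loaded human TRPV3-HEK293 cells, agonist 2-APB (80 μM, its EC80) after 3 min. IC50 derived from peak-minus-baseline signal as percentage of uninhibited 2-APB response, typically averaged over at least two runs.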

[1] = In vitro human microsomal stability assay; type: in vitro ADME
Outline: (§1)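 Metabolic stability was followed in NADPH-supplemented incubations at 37° C., using microsomes prepared from human liver or from Sprague-Dawley rat liver.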

[2] = In vitro rat microsomal stability assay; type: in vitro ADME, rat (Sprague-Dawley)
Outline: as §1

[3] = actual measured value shown parenthetically, in most cases average of at least two runs, read-out: IC50
[4] = human, microsomes, 0.5 h, 0.5 μM, pH 7.4
[5] = Sprague-Dawley, rat, microsomes, 0.5 h, 0.5 μM, pH 7.4
[6] = reported range, read-out: IC50 (range class)
[7] = human liver microsomes, 0.5 μM substrate, 0.25 mg/mL microsomal protein, pH 7.4, 37° C., NADPH, 30 minutes
[8] = rat liver microsomes (Sprague-Dawley), 0.5 μM substrate, 0.25 mg/mL microsomal protein, pH 7.4, 37° C., NADPH, 30 minutes

SMILES	IC50 (human TRPV3; [3]) [µM]	HUMAN MICROSOMAL STABILITY (% REMAINING AFTER 30 MINUTES) [1, 4] [%]	RAT MICROSOMAL STABILITY (% REMAINING AFTER 30 MINUTES) [2, 5] [%]	IC50 (human TRPV3; [6]) [µM]	HUMAN MICROSOMAL STABILITY (% REMAINING AFTER 30 MINUTES) [1, 7] [%]	RAT MICROSOMAL STABILITY (% REMAINING AFTER 30 MINUTES) [2, 8] [%]	HUMAN […] (% REMAINING AFTER 30 MINUTES) [1, 7] [%]	RAT […] (% REMAINING AFTER 30 MINUTES) [2, 8] [%]
COC1CC(c2ccc(Cl)c(Cl)c2)(C(O)c2ccccn2)C1 [Example 150, (S)-[cis-1-(3,4-dichlorophenyl)-3-methoxycyclobutyl](pyridin-2-yl)-methanol]	1.69	42	<0.01	–	–	–	–	–
OC(c1ccccn1)C1(c2ccc(C(F)(F)F)cc2)CNC1 (stereo not drawn) [Example 152, pyridin-2-yl{3-[4-(trifluoromethyl)phenyl]azetidin-3-yl}methanol]	19.7	>85	>85	–	–	–	–	–
CC(C)(C)OC(=O)N1CC(c2ccc(C(F)(F)F)cc2)(C(O)c2ccccn2)C1 (stereo not drawn) [Example 153, tert-butyl 3-[hydroxy(pyridin-2-yl)methyl]-3-[4-(trifluoromethyl)phenyl]-azetidine-1-carboxylate]	8.01	49	21	–	–	–	–	–
O[C@H](c1ccccn1)C1(c2ccc(C(F)(F)F)cc2)CC(F)(F)C1 [Example 154, (S)-{3,3-difluoro-1-[4-(trifluoromethyl)phenyl]cyclobutyl}(pyridin-2-yl)-methanol]	0.23	56	78	–	–	–	–	–
CN1CC(c2ccc(C(F)(F)F)cc2)(C(O)c2ccccn2)C1 (stereo not drawn) [Example 155, {1-methyl-3-[4-(trifluoromethyl)phenyl]azetidin-3-yl}(pyridin-2-yl)-methanol]	17	>85	76	–	–	–	–	–
CC(C)(C)OC(=O)N1CCC(c2ccc(C(F)(F)F)cc2)(C(O)c2ccccn2)CC1 (stereo not drawn) [Example 156, tert-butyl 4-[hydroxy(pyridin-2-yl)methyl]-4-[4-(trifluoromethyl)phenyl]-piperidine-1-carboxylate]	> 20	26	0.08	> 20	–	–	–	–
CC(C)(C)OC(=O)N1CCC(c2ccc(OC(F)(F)F)cc2)(C(O)c2ccccn2)CC1 (stereo not drawn) [Example 157, tert-butyl 4-[hydroxy(pyridin-2-yl)methyl]-4-[4-(trifluoromethoxy)phenyl]-piperidine-1-carboxylate]	> 20	28	0.93	> 20	–	–	–	–
CC(C)(C)OC(=O)N1CCC(c2cccc(OC(F)(F)F)c2)(C(O)c2ccccn2)CC1 (stereo not drawn) [Example 158, tert-butyl 4-[hydroxy(pyridin-2-yl)methyl]-4-[3-(trifluoromethoxy)phenyl]-piperidine-1-carboxylate]	> 20	–	–	> 20	3.7	0.04	–	–
O[C@@H](c1ccccn1)C1(c2ccc(OC(F)(F)F)cc2)CC(F)(F)C1 [Example 159, (R)-{3,3-difluoro-1-[4-(trifluoromethoxy)phenyl]cyclobutyl}(pyridin-2-yl)-methanol]	1.98	45	65	–	–	–	–	–
O=C1CC(c2ccc(C(F)(F)F)cc2)(C(O)c2ccccn2)C1 (stereo not drawn) [Example 160, 3-[hydroxy(pyridin-2-yl)methyl]-3-[4-(trifluoromethyl)phenyl]-cyclobutanone]	6.11	>85	60	–	–	–	–	–
OC(C1CCc2cccnc21)C1(c2cccc(C(F)(F)F)c2)CCC1 (stereo not drawn) [Example 185, (anti)-6,7-dihydro-5H-cyclopenta[b]pyridin-7-yl{1-[3-(trifluoromethyl)-phenyl]cyclobutyl}methanol]	> 20	–	–	> 20	–	–	0.39	<0.01
OC(C1CCc2cccnc21)C1(c2cccc(C(F)(F)F)c2)CCC1 (stereo not drawn) [Example 186, (syn)-6,7-dihydro-5H-cyclopenta[b]pyridin-7-yl{1-[3-(trifluoromethyl)-phenyl]cyclobutyl}methanol]	> 20	0.18	<0.01	> 20	–	–	–	–

Now from value to compound, other results behind:

IC50 (human TRPV3; [3]) [µM]	HUMAN MICROSOMAL STABILITY (% REMAINING AFTER 30 MINUTES) [1, 4] [%]	RAT MICROSOMAL STABILITY (% REMAINING AFTER 30 MINUTES) [2, 5] [%]	IC50 (human TRPV3; [6]) [µM]	SMILES	HUMAN MICROSOMAL STABILITY (% REMAINING AFTER 30 MINUTES) [1, 7] [%]	RAT MICROSOMAL STABILITY (% REMAINING AFTER 30 MINUTES) [2, 8] [%]	HUMAN […] (% REMAINING AFTER 30 MINUTES) [1, 7] [%]	RAT […] (% REMAINING AFTER 30 MINUTES) [2, 8] [%]
3.27	61	<0.01	–	OC(c1ccccn1)C1(c2ccc(C(F)(F)F)cc2)CC2(C1)OCCO2 (stereo not drawn) [Example 161, pyridin-2-yl{2-[4-(trifluoromethyl)phenyl]-5,8-dioxaspiro[3.4]oct-2-yl}-methanol]	–	–	–	–
3.88	0.02	<0.01	–	OC(c1ccccn1)C1(C2CCCCC2)CCC1 (stereo not drawn) [Example 162, (1-cyclohexylcyclobutyl)(pyridin-2-yl)methanol]	–	–	–	–
4.9	0.11	<0.01	–	OC(c1ccccn1)C1(C2CCCC2)CCC1 (stereo not drawn) [Example 163, (1-cyclopentylcyclobutyl)(pyridin-2-yl)methanol]	–	–	–	–
> 20	9.5	<0.01	> 20	OC(C1CCc2cccnc21)C1(c2ccc(Cl)c(Cl)c2)CCC1 (stereo not drawn) [Example 167, (anti)-[1-(3,4-dichlorophenyl)cyclobutyl][6,7-dihydro-5H-cyclopenta[b]-pyridin-7-yl]methanol]	–	–	–	–
9.14	5.6	<0.01	–	OC(C1CCc2cccnc21)C1(c2ccc(Cl)c(Cl)c2)CCC1 (stereo not drawn) [Example 168, (syn)-[1-(3,4-dichlorophenyl)cyclobutyl][6,7-dihydro-5H-cyclopenta[b]-pyridin-7-yl]methanol]	–	–	–	–
> 20	2.7	<0.01	> 20	OC(C1CCc2cccnc21)C1(c2ccc(F)c(F)c2)CCC1 (stereo not drawn) [Example 171, (anti)-[1-(3,4-difluorophenyl)cyclobutyl][6,7-dihydro-5H-cyclopenta[b]-pyridin-7-yl]methanol]	–	–	–	–
> 20	2.4	<0.01	> 20	OC(C1CCc2cccnc21)C1(c2ccc(F)c(F)c2)CCC1 (stereo not drawn) [Example 172, (syn)-[1-(3,4-difluorophenyl)cyclobutyl][6,7-dihydro-5H-cyclopenta[b]-pyridin-7-yl]methanol]	–	–	–	–
> 20	45	<0.01	> 20	OC(C1CCc2cccnc21)C1(c2ccc(C(F)(F)F)cc2)CCC1 (stereo not drawn) [Example 173, (anti)-6,7-dihydro-5H-cyclopenta[b]pyridin-7-yl{1-[4-(trifluoromethyl)-phenyl]cyclobutyl}methanol]	–	–	–	–
> 20	26	<0.01	> 20	OC(C1CCc2cccnc21)C1(c2ccc(C(F)(F)F)cc2)CCC1 (stereo not drawn) [Example 174, (syn)-6,7-dihydro-5H-cyclopenta[b]pyridin-7-yl{1-[4-(trifluoromethyl)-phenyl]cyclobutyl}methanol]	–	–	–	–
> 20	29	<0.01	> 20	OC(C1CCc2cccnc21)C1(c2ccc(OC(F)(F)F)cc2)CCC1 (stereo not drawn) [Example 175, (anti)-6,7-dihydro-5H-cyclopenta[b]pyridin-7-yl{1-[4-(trifluoromethoxy)-phenyl]cyclobutyl}methanol]	–	–	–	–
> 20	20	<0.01	> 20	OC(C1CCc2cccnc21)C1(c2ccc(OC(F)(F)F)cc2)CCC1 (stereo not drawn) [Example 176, (syn)-6,7-dihydro-5H-cyclopenta[b]pyridin-7-yl{1-[4-(trifluoromethoxy)-phenyl]cyclobutyl}methanol]	–	–	–	–
